Source: patent US7713958B2, “Compounds and compositions as protein kinase inhibitors” (IRM LLC, priority 2003, dated 2010)

Experiments:
Format in all cases: biochemical
[1] = target: c-src (Homo sapiens, UniProt P12931); test: Kinase inhibition at 10 μM, c-src; settings: 10 μM of Compound; read-out: Percentage Inhibition of c-src
[2] = target: FGFR-1 (Homo sapiens, UniProt P11362); test: Kinase inhibition at 10 μM, FGFR-1; settings: 10 μM of Compound; read-out: Percentage Inhibition of FGFR-1
[3] = target: KDR (Homo sapiens, UniProt P35968); test: Kinase inhibition at 10 μM, KDR; settings: 10 μM of Compound; read-out: Percentage Inhibition of KDR
[4] = target: c-Kit (Homo sapiens, UniProt P10721); test: Kinase inhibition at 10 μM, c-Kit; settings: 10 μM of Compound; read-out: Percentage Inhibition of c-Kit
[5] = target: c-Met (Homo sapiens, UniProt P08581); test: Kinase inhibition at 10 μM, c-Met; settings: 10 μM of Compound; read-out: Percentage Inhibition of c-Met
[6] = target: CDK1 (Homo sapiens, UniProt P06493); test: Kinase inhibition at 10 μM, CDK1; settings: 10 μM of Compound; read-out: Percentage Inhibition of CDK1
[7] = target: c-Abl (Homo sapiens, UniProt P00519); test: Kinase inhibition at 10 μM, c-Abl; settings: 10 μM of Compound; read-out: Percentage Inhibition of c-Abl
[8] = target: IGF-1R (Homo sapiens, UniProt P08069); test: Kinase inhibition at 10 μM, IGF-1R; settings: 10 μM of Compound; read-out: Percentage Inhibition of IGF-1R
[9] = target: Flt-1 (Homo sapiens, UniProt P17948); test: Kinase inhibition at 10 μM, Flt-1; settings: 10 μM of Compound; read-out: Percentage Inhibition of Flt-1
[10] = target: T1, Flt-3 (Homo sapiens, UniProt P36888); test: Kinase inhibition at 10 μM, Flt-3; settings: 10 μM of Compound; read-out: Percentage Inhibition of Flt-3
T1 sequence (P36888 27-993): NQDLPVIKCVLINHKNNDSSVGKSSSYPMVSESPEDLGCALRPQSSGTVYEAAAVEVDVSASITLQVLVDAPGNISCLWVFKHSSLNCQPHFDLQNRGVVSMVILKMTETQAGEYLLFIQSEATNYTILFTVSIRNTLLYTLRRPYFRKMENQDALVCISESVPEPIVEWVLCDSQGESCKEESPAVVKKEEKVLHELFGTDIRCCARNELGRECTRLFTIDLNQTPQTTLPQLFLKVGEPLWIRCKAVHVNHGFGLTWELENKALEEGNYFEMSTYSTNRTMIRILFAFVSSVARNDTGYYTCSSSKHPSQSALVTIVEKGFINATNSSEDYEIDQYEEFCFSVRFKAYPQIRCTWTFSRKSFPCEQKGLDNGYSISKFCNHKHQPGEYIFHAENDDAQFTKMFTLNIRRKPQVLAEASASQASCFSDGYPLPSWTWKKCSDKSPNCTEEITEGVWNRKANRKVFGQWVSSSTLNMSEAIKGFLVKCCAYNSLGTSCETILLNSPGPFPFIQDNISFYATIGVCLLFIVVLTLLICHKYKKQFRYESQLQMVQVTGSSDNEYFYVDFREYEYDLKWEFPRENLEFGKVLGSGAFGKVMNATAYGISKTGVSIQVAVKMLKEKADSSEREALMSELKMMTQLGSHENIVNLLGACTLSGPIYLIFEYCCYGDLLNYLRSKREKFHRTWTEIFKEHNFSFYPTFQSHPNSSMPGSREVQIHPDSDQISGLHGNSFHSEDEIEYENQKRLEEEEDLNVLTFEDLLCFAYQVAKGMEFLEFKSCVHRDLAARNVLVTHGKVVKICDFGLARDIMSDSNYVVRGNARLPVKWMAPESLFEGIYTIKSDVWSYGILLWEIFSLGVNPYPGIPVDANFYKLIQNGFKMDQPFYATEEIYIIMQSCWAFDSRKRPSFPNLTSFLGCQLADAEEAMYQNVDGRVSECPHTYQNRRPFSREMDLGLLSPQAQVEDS

[11] = target: Tek (Homo sapiens, UniProt Q02763); test: Kinase inhibition at 10 μM, Tek; settings: 10 μM of Compound; read-out: Percentage Inhibition of Tek
[12] = target: PDGFR-β (Homo sapiens, UniProt P09619); test: Kinase inhibition at 10 μM, PDGFR-β; settings: 10 μM of Compound; read-out: Percentage Inhibition of PDGFR-β

Sequence of c-src (P12931 whole entry, species assumed): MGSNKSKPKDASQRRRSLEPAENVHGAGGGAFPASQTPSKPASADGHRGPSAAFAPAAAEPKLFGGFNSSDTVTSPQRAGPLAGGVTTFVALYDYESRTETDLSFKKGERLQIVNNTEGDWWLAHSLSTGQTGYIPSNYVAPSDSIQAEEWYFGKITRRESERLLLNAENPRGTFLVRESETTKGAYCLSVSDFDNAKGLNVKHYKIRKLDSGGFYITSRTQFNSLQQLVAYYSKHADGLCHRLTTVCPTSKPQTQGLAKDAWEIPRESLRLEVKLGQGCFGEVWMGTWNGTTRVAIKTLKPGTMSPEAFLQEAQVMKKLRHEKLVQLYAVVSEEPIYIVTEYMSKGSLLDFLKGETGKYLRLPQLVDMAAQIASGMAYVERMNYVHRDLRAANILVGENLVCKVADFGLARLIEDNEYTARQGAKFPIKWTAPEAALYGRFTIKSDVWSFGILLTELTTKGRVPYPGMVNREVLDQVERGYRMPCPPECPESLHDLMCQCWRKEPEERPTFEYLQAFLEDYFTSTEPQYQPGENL
Sequence of Tek (Q02763 23-1124, species assumed): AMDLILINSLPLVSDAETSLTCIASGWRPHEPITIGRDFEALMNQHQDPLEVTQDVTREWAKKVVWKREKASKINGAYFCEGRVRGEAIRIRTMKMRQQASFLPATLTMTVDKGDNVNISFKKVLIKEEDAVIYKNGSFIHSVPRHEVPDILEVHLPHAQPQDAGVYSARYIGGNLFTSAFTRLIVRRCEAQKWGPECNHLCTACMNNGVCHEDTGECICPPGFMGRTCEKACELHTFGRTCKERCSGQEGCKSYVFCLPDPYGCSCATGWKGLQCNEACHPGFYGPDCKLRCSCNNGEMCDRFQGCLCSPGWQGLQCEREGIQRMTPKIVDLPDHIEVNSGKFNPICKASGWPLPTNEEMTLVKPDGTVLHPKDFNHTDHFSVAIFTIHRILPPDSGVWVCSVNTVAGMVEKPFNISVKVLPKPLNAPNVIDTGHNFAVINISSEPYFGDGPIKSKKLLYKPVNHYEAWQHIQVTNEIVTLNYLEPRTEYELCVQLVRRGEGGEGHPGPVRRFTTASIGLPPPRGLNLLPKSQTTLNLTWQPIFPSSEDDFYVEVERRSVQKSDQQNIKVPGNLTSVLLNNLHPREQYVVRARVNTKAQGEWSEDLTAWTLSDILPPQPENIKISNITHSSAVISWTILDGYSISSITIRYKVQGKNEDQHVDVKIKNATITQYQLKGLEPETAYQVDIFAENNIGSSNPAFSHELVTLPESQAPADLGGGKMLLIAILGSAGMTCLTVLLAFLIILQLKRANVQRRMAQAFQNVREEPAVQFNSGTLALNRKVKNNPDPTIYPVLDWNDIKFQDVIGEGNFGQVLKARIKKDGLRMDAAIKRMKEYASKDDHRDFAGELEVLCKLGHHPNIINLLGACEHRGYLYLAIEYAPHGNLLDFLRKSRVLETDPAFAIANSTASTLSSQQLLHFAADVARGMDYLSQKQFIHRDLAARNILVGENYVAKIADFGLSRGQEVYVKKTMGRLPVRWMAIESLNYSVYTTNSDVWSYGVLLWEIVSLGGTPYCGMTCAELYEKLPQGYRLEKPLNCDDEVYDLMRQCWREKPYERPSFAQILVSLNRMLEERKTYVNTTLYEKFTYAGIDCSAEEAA
Sequence of CDK1 (P06493 whole entry, species assumed): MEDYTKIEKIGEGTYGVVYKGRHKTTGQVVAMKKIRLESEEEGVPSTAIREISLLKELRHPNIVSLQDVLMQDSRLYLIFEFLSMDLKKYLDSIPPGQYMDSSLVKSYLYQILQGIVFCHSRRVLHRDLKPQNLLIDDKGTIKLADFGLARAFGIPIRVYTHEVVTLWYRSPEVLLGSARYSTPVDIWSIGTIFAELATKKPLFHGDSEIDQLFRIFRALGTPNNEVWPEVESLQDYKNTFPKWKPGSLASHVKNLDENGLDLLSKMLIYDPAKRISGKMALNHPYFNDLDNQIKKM
Sequence of CDK1 (P14635 whole entry partner, species assumed): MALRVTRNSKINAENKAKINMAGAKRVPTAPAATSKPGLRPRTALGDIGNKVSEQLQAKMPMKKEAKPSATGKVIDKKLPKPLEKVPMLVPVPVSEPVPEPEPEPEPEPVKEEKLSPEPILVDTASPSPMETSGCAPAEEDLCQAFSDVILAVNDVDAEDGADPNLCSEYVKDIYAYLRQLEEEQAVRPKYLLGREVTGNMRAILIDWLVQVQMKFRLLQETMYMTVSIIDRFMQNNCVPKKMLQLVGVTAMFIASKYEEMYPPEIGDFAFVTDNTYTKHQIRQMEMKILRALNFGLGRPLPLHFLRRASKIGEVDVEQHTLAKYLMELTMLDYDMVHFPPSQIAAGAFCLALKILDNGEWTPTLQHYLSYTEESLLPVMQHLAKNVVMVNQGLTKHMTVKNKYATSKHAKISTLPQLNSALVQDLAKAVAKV
Sequence of IGF-1R (P08069 31-1367, species assumed): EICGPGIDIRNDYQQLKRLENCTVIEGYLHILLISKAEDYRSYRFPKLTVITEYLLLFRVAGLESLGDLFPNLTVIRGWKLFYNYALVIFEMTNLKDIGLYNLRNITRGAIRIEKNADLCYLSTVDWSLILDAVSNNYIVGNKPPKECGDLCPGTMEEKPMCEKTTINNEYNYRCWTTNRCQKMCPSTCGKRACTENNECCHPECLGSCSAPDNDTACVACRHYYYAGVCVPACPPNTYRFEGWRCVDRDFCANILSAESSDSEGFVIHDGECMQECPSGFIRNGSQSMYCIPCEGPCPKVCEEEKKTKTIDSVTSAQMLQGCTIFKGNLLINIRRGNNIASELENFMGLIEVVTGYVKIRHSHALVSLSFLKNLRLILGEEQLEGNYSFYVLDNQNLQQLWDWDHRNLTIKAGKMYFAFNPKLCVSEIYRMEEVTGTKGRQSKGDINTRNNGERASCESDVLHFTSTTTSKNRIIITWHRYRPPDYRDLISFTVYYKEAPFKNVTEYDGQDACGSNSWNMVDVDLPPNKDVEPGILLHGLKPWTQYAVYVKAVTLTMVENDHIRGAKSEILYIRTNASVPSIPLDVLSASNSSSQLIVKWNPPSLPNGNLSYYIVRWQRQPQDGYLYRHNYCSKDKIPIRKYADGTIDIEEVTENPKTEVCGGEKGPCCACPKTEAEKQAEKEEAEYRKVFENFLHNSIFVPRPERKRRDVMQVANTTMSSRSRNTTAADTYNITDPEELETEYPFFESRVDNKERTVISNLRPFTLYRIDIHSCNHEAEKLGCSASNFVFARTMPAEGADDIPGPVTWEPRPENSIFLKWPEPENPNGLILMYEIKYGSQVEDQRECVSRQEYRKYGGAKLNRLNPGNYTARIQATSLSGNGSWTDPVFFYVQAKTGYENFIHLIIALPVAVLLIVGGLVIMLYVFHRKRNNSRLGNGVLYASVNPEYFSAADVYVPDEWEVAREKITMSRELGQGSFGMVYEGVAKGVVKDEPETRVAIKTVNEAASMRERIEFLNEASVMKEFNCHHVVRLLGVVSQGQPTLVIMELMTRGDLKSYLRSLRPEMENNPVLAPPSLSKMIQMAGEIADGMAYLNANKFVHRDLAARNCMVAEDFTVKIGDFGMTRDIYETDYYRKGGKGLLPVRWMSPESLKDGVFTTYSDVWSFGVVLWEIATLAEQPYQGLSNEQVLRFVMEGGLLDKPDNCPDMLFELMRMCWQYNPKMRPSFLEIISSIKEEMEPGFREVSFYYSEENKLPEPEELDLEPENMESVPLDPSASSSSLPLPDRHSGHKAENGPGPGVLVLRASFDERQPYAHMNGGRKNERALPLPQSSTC
Sequence of Flt-1 (P17948 27-1338, species assumed): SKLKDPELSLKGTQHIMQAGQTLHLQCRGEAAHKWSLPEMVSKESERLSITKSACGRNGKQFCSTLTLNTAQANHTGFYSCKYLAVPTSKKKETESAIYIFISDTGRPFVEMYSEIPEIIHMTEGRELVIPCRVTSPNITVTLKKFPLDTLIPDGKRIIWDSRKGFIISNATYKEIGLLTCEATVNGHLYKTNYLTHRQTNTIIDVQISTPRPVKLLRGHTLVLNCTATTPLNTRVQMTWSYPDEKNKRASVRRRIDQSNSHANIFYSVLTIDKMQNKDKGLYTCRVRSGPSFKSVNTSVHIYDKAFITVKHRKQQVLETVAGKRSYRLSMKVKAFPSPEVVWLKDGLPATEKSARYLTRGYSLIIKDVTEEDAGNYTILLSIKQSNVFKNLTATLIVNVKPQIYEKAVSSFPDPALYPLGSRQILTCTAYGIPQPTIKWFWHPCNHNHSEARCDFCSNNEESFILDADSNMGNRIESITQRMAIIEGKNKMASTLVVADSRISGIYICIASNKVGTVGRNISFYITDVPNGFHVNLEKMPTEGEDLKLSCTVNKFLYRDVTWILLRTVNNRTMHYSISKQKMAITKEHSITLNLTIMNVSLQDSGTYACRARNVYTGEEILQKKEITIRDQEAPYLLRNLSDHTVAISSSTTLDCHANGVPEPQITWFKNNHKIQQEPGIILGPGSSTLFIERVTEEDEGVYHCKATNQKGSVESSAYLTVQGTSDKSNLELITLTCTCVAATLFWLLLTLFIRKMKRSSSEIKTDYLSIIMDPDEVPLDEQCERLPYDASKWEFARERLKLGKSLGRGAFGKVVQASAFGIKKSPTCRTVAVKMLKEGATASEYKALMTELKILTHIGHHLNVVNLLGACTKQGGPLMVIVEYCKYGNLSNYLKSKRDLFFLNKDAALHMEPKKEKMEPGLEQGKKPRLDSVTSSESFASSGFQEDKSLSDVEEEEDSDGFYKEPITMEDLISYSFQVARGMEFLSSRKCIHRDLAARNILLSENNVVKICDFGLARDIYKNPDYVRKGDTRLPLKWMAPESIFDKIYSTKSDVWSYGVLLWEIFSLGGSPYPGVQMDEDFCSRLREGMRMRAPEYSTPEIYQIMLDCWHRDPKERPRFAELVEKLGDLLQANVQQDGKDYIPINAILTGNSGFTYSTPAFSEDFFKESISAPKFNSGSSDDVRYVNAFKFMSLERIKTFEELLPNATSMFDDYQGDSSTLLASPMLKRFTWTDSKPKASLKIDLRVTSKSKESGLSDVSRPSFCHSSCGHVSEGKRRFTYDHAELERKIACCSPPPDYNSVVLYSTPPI

| inhibition at 10 µM [1] [%] | inhibition at 10 µM [2] [%] | inhibition at 10 µM [3] [%] | inhibition at 10 µM [4] [%] | inhibition at 10 µM [5] [%] | inhibition at 10 µM [6] [%] | inhibition at 10 µM [7] [%] | inhibition at 10 µM [8] [%] | inhibition at 10 µM [9] [%] | inhibition at 10 µM [10] [%] | inhibition at 10 µM [11] [%] | inhibition at 10 µM [12] [%] | Compound |
| --- | --- | --- | --- | --- | --- | --- | --- | --- | --- | --- | --- | --- |
| 78 | – | – | – | – | 97 | – | – | – | – | 70 | 97 | O=C1NCC/C(=N\Nc2cccnc2)c2c1[nH]c1ccc(Cl)cc21 [Compound 33, 7-chloro-5-(pyridin-3-yl-hydrazono)-3,4,5,10-tetrahydro-2H-azepino[3,4-b]indol-1-one] |
| 90 | – | – | – | – | 98 | 86 | 76 | 79 | 75 | 81 | – | O=C1NCC/C(=N\Nc2ccccn2)c2c1[nH]c1ccc(F)cc21 [Compound 37, 7-fluoro-5-(pyridin-2-yl-hydrazono)-3,4,5,10-tetrahydro-2H-azepino[3,4-b]indol-1-one] |

Continued, compound first:

| Compound | inhibition at 10 µM [1] [%] | inhibition at 10 µM [2] [%] | inhibition at 10 µM [3] [%] | inhibition at 10 µM [4] [%] | inhibition at 10 µM [5] [%] | inhibition at 10 µM [6] [%] | inhibition at 10 µM [7] [%] | inhibition at 10 µM [8] [%] | inhibition at 10 µM [9] [%] | inhibition at 10 µM [10] [%] | inhibition at 10 µM [11] [%] | inhibition at 10 µM [12] [%] |
| --- | --- | --- | --- | --- | --- | --- | --- | --- | --- | --- | --- | --- |
| NC1=NC(=O)/C(=C2\CCNC(=O)c3[nH]c4ccc(F)cc4c32)N1 [Compound 12, 5-(2-amino-5-oxo-3,5-dihydro-imidazol-4-ylidene)-7-fluoro-3,4,5,10-tetrahydro-2H-azepino[3,4-b]indol-1-one] | 89 | 89 | 70 | 86 | 74 | 99 | – | – | – | – | – | – |
| O=C1NCC/C(=N\Nc2ccccn2)c2c1[nH]c1ccc(Cl)cc21 [Compound 24, 7-chloro-5-(pyridin-2-yl-hydrazono)-3,4,5,10-tetrahydro-2H-azepino[3,4-b]indol-1-one] | 92 | – | – | 79 | – | 88 | 91 | 82 | 85 | 72 | 73 | – |
| NS(=O)(=O)c1ccc(N/N=C2\CCNC(=O)c3[nH]c4ccc(Cl)cc4c32)cc1 [Compound 31, 4-[N′-(7-chloro-1-oxo-1,3,4,10-tetrahydro-2H-azepino[3,4-b]indol-5-ylidene)-hydrazino]-benzenesulfonamide] | – | – | – | – | – | 95 | – | – | – | – | – | – |
